Data as given in US20260376293A1, “METHODS FOR STUDYING GPR158 PHARMACOLOGY AND IDENTIFICATION OF ITS LIGANDS” (UNIVERSITY OF FLORIDA RESEARCH FOUNDATION, INCORPORATED, priority 2022, published 2026).

Molecular target: T1, GPR158 (Homo sapiens, UniProt Q5T848)
T1 construct: expressed in transfected cells; host or cells: HEK293T/17
T1 sequence (Q5T848 24-1215): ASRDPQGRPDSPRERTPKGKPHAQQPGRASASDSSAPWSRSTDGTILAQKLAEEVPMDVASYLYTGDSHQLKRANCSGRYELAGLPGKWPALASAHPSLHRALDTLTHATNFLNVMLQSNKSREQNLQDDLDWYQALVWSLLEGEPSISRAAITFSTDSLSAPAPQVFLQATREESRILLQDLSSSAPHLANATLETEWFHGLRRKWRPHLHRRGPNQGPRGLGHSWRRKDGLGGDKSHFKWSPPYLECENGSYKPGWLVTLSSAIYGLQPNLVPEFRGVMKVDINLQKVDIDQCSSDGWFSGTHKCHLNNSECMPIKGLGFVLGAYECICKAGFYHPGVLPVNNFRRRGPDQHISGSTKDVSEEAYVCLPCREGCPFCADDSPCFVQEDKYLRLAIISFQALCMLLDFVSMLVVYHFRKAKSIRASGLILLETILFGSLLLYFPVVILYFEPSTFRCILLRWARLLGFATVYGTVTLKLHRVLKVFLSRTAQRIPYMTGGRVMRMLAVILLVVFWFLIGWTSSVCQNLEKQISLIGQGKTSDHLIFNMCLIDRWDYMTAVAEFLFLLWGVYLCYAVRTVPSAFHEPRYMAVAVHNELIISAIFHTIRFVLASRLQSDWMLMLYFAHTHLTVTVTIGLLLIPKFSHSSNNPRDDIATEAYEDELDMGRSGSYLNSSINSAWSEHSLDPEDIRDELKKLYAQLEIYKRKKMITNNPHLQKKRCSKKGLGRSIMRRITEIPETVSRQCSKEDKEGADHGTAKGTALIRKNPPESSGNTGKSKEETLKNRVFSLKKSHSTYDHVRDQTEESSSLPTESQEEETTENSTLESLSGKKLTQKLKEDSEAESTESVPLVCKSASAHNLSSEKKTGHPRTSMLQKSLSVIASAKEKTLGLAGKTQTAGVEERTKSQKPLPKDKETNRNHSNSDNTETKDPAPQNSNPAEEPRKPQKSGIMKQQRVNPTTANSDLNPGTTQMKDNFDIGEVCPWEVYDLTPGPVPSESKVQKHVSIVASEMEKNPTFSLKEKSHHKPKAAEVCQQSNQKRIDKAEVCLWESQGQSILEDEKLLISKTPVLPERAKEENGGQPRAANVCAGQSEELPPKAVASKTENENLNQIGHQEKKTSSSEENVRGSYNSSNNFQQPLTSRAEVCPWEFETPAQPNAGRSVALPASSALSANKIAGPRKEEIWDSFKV
T1 sequence (P49802 1-495 partner): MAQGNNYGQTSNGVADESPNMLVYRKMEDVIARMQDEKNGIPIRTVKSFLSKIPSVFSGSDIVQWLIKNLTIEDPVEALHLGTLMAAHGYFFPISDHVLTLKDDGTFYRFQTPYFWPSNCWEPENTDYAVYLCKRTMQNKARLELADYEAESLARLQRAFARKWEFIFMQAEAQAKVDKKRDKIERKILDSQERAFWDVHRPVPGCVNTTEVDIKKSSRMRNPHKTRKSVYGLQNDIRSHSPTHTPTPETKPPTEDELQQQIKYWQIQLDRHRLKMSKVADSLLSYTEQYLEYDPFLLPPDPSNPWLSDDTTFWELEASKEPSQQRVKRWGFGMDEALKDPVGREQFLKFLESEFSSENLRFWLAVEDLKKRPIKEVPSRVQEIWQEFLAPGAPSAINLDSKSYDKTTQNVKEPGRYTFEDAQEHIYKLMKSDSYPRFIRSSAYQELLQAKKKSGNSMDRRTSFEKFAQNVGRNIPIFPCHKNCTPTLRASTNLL
T1 sequence (O14775 1-395 partner): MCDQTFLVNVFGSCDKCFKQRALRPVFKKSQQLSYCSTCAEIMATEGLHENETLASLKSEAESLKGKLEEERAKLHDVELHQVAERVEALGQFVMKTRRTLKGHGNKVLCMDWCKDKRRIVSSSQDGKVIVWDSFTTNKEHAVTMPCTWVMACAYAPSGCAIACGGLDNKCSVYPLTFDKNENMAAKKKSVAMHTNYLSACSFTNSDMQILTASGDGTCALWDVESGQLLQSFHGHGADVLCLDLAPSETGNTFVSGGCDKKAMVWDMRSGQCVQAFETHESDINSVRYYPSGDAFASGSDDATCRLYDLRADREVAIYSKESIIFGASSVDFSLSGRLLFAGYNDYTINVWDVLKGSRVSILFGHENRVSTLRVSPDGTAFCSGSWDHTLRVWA
Assay: cADDIS fluorescence-based cAMP assay, HEK293T/17 cells
Format: cell-based
Settings: 500 μM Gly, 15 min, forskolin; GPR158-RGS7/Gβ5, HEK293T/17
Method: B. Effect of Gly on cAMP levels measured using CADDIS assay in HEK293T/17 cells (Gly conc. 500 μM). Binding of Gly to Cache domain of GPR158 blocks the GAP activity of GPR158-RGS7/Gβ5 complex on Gαo, resulting in lowering of CAMP levels. Data shown here represent the normalized fluorescence intensity upon Gly treatment (Mean±SEM from 3 independent experiments, Unpaired t-test, **p=0.0016)
In an effort to study the modulatory effects of Gly on CAMP through GPR158, the inventors took advantage of a fluorescence-based cAMP sensor cADDIS (Montana molecular) which involves Bacmam virus-based transduction of sensor into the cells (FIG. 17A).
Briefly, HEK293T/17 cells were co-transfected with plasmids for GPR158, RGS7 and Gβ5 (150 μg/ml, GPR158: RGS7: Gβ5:4:1:1) by electroporation (Maxcyte). […] Before Glycine treatment, baseline fluorescence intensity was recorded using a fluorescence intensity module (FI Ex: 485 nm, Em: 520 nm) in Pherastar FSX microplate reader (BMG Labtech) followed by forskolin treatment for 15 min. Subsequently, the cells were treated with 500 μM Gly and fluorescence intensity was recorded. […]
The cADDIS assay for Gαi results in increase in fluorescence when CAMP is decreasing in the cells after drug treatment.

cADDIS fluorescence change (cAMP decrease): significant increase in fluorescence
Compound: NCC(=O)O [glycine]
